Data set [1] concerns BMMC. The data set can be described thus: Anti-osteoclastogenic activity in C57/BL6 mouse BMMC cells assessed as inhibition of RANKL-induced osteoclast differentiation at 0.01 uM incubated for 5 to 7 days in presence of M-CSF by TRAP staining based microscopic analysis relative to control. It is filed as functional. Particulars: time 5-7 day.
The nature of data set [2]: Microsomal stability in mouse liver microsomes assessed as half life at 1 uM and measured upto 60 mins by LC-MS/ MS analysis. It is filed as ADME, Microsome. (Liver microsomes are vesicles of endoplasmic reticulum, rich in cytochrome P450 enzymes.)
A short description of data set [3]: AUCt in ICR mouse at 1 mg/kg, iv and measured upto 24 hrs by LC-MS/MS analysis. It is filed as ADME, organism-based. Details: dose 1 mg/kg, time < 24 hrs, route iv. Conditions: in vivo.
A short description of data set [4]: Cmax in ICR mouse at 10 mg/kg, po and measured upto 24 hrs by LC-MS/MS analysis. It is filed as ADME, organism-based. Details: dose 10 mg/kg, time < 24 hrs, route po. Particulars: in vivo.
Data set [5] is described as follows: AUCt in ICR mouse at 10 mg/kg, po and measured upto 24 hrs by LC-MS/MS analysis. It is filed as ADME, organism-based. Details: dose 10 mg/kg, time < 24 hrs, route po. Conditions: in vivo.
The test system of data set [6] is BMMC. In words: Anti-osteoclastogenic activity in C57/BL6 mouse BMMC cells assessed as inhibition of RANKL-induced osteoclast differentiation by observing number of TRAP-positive multinucleated cells at 1 uM and compound added at different times and measured after 7 days in presence of M-CSF by TRAP staining based microscopic analysis relative to control. It is filed as functional, cell-based. Particulars: time 7.0 day, TDE = time-dependent effect.

Data set [7] deals with BMMC. In words: Anti-osteoclastogenic activity in C57/BL6 mouse BMMC cells assessed as inhibition of RANKL-stimulated osteoclastogenesis at 1 uM and compound added at day 1 to 3 (early stage) and measured after 7 days in presence of M-CSF by TRAP staining based microscopic analysis relative to control. It is filed as functional. Conditions: 168 h, time 7 day.
For data set [8], the system named is BMMC. In words: Anti-osteoclastogenic activity in C57/BL6 mouse BMMC cells assessed as reduction in RANKL-induced CTSK mRNA expression level at 0.1 uM incubated for 1 to 5 days in presence of M-CSF by qRT-PCR analysis. Conditions: time 1-5 day, TDE = time-dependent effect. It is filed as functional, cell-based.
Data set [9] deals with BMMC. In words: Anti-osteoclastogenic activity in C57/BL6 mouse BMMC cells assessed as reduction in RANKL-induced ATPase v0d2 mRNA expression level at 0.1 uM incubated for 1 to 5 days in presence of M-CSF by qRT-PCR analysis. It is filed as functional, cell-based. Particulars: time 1-5 day, TDE = time-dependent effect. In general terms: Quantitative PCR measures a nucleic acid by following its amplification.

The nature of data set [10]: Toxicity in ovariectomy induced osteoporosis C57BL/6 mouse model assessed as body weight change at 1 to 3 mg/kg, ip and measured for 6 weeks. It is filed as organism-based. Conditions: in vivo, 1008 h, dose 1-3 mg/kg.
In another data set the test system is Mus musculus. The data set can be described thus: Protective effect in ovariectomy induced osteoporosis C57BL/6 mouse model assessed as increase in bone surface/tissue volume (BS/TV) in RIO of femur at 1 to 3 mg/kg, ip and measured after 6 weeks by micro-CT analysis. It is filed as functional, organism-based. Particulars: dose 1-3 mg/kg.

Experimental findings from ChEMBL document CHEMBL5321281, “Synthesis and Biological Evaluation of Heterocyclic Ring-Fused 20(S)-Protopanaxadiol Derivatives as Potent Antiosteoporosis Agents” (J Med Chem, 2023) are described below.

Calls of active or inactive are those of the source.

On to `C=C(CCC=C(C)C)[C@H]1CC[C@]2(C)[C@@H]1[C@H](O)C[C@@H]1[C@@]3(C)Cc4cnc(C)nc4C(C)(C)[C@@H]3CC[C@]12C`, for which the inhibition at 0.01 µM in the data set on BMMC [1] was determined as 44.4%. Besides, the half-life at 1 µM in [2] was determined as 37.1 min. Besides, the AUC(0-t) at 24 h in [3] turned out to be 1170 ng·h/mL; in data set [5] it was 1210 ng·h/mL. The Cmax in data set [4] amounted to 823 ng/mL. Also, the inhibition entry in the data set on BMMC [6] is “Tde”. The inhibition at 1 µM with BMMC [7] was 98.8%. In addition, the Activity result in the data set on BMMC [8] is “Tde”; in the data set with BMMC [9], “Tde”; in [10], “Non-Toxic”. Besides, the outcome in the data set with Mus musculus was Active.

In general, inhibition refers to the change of the read-out against control, counted positive when it falls. For orientation: half-life means the time needed for the level to fall by half in the phase considered. As a reminder, the AUC(0-t) is the area under the concentration-time curve up to a stated or last time point. High values mean high exposure, low ones low exposure. By Cmax is commonly meant the highest concentration seen after dosing.
